Active and inactive are the calls of the source. The calls are words filed in the database; no cut-off is given here.
How the values were obtained:
[1] = system: Thielaviopsis paradoxa; assay: Antifungal activity against Ceratocystis paradoxa assessed as inhibition of conidium germination at 5 g/l incubated for 15 min followed by compound washout measured after 2 days by microscopic analysis in absence of surfactant APSA 80; format: functional, organism-based
[2] = system: Colletotrichum musae; assay: Antifungal activity against Colletotrichum musae assessed as inhibition of conidium germination at 5 g/l incubated for 15 min followed by compound washout measured after 2 days by microscopic analysis in absence of surfactant APSA 80; format: functional, organism-based
[3] = system: Lasiodiplodia theobromae; assay: Antifungal activity against Lasiodiplodia theobromae assessed as inhibition of conidium germination at 5 g/l incubated for 15 min followed by compound washout measured after 2 days by microscopic analysis in absence of surfactant APSA 80; format: functional, organism-based
[4] = system: Fusarium verticillioides; assay: Growth inhibition of Fusarium verticillioides assessed as inhibition of mycelial growth up to 160 g/l incubated for 15 min followed by compound washout measured after 7 days in absence of surfactant APSA 80; format: functional
[5] = system: Fusarium verticillioides; assay: Growth inhibition of Fusarium verticillioides assessed as inhibition of mycelial growth up to 160 g/l incubated for 15 min followed by compound washout measured after 7 days in presence of surfactant APSA 80; format: functional, organism-based
[6] = system: Colletotrichum musae; assay: Growth inhibition of Colletotrichum musae assessed as inhibition of mycelial growth up to 160 g/l incubated for 15 min followed by compound washout measured after 7 days in absence of surfactant APSA 80; format: functional
[7] = system: Colletotrichum musae; assay: Growth inhibition of Colletotrichum musae assessed as inhibition of mycelial growth up to 160 g/l incubated for 15 min followed by compound washout measured after 7 days in presence of surfactant APSA 80; format: functional, organism-based
[8] = system: Thielaviopsis paradoxa; assay: Growth inhibition of Ceratocystis paradoxa assessed as inhibition of mycelial growth up to 160 g/l incubated for 15 min followed by compound washout measured after 7 days in absence of surfactant APSA 80; format: functional, organism-based
[9] = system: Thielaviopsis paradoxa; assay: Growth inhibition of Ceratocystis paradoxa assessed as inhibition of mycelial growth up to 160 g/l incubated for 15 min followed by compound washout measured after 7 days in presence of surfactant APSA 80; format: functional
[10] = system: Colletotrichum musae; assay: Antifungal activity against Colletotrichum musae assessed as inhibition of conidium germination at 5 g/l incubated for 15 min followed by compound washout measured after 7 days by microscopic analysis in presence of surfactant APSA 80; format: functional, organism-based
[11] = system: Thielaviopsis paradoxa; assay: Antifungal activity against Ceratocystis paradoxa assessed as inhibition of conidium germination at 5 g/l incubated for 15 min followed by compound washout measured after 7 days by microscopic analysis in presence of surfactant APSA 80; format: functional, organism-based
[12] = system: Lasiodiplodia theobromae; assay: Antifungal activity against Lasiodiplodia theobromae assessed as inhibition of conidium germination at 5 g/l incubated for 15 min followed by compound washout measured after 7 days by microscopic analysis in presence of surfactant APSA 80; format: functional, organism-based
[13] = system: Fusarium verticillioides; assay: Antifungal activity against Fusarium verticillioides assessed as inhibition of conidium germination at 5 g/l incubated for 15 min followed by compound washout measured after 2 days by microscopic analysis in absence of surfactant APSA 80; format: functional, organism-based
[14] = system: Fusarium verticillioides; assay: Antifungal activity against Fusarium verticillioides assessed as inhibition of conidium germination at 5 g/l incubated for 15 min followed by compound washout measured after 7 days by microscopic analysis in presence of surfactant APSA 80; format: functional, organism-based
[15] = system: Lasiodiplodia theobromae; assay: Growth inhibition of Lasiodiplodia theobromae assessed as concentration required for inhibition of mycelial growth incubated for 15 min followed by compound washout measured after 7 days in absence of surfactant APSA 80; format: functional
[16] = system: Lasiodiplodia theobromae; assay: Growth inhibition of Lasiodiplodia theobromae assessed as concentration required for inhibition of mycelial growth incubated for 15 min followed by compound washout measured after 7 days in presence of surfactant APSA 80; format: functional
[17] = system: Fusarium verticillioides; assay: Antifungal activity against Fusarium verticillioides infected Cavendish banana fruit assessed as reduction in crown rot incubated for 15 min followed by compound washout measured after 3 weeks in presence of surfactant APSA 80 relative to control; format: functional; design: scale not given: the % may be the effect or the level left; details: pooled result: one value given for 4 cell lines, strains, targets or settings
[18] = system: Fusarium verticillioides; assay: Antifungal activity against Fusarium verticillioides infected Cavendish banana fruit assessed as reduction in crown rot incubated for 15 min followed by compound washout measured after 3 weeks in absence of surfactant APSA 80 relative to control; format: functional; design: scale not given: the % may be the effect or the level left; details: pooled result: one value given for 4 cell lines, strains, targets or settings
[19] = system: Fusarium verticillioides; assay: Antifungal activity against Fusarium verticillioides infected Cavendish banana fruit assessed as reduction in crown rot incubated for 15 min followed by compound washout measured after 2 weeks in presence of surfactant APSA 80 relative to control; format: functional; design: scale not given: the % may be the effect or the level left
[20] = system: Colletotrichum musae; assay: Antifungal activity against Colletotrichum musae infected Cavendish banana fruit assessed as reduction in crown rot incubated for 15 min followed by compound washout measured after 2 weeks in presence of surfactant APSA 80 relative to control; format: functional; design: scale not given: the % may be the effect or the level left
[21] = system: Thielaviopsis paradoxa; assay: Antifungal activity against Ceratocystis paradoxa infected Cavendish banana fruit assessed as reduction in crown rot incubated for 15 min followed by compound washout measured after 2 weeks in presence of surfactant APSA 80 relative to control; format: functional; design: scale not given: the % may be the effect or the level left
[22] = system: Lasiodiplodia theobromae; assay: Antifungal activity against Lasiodiplodia theobromae infected Cavendish banana fruit assessed as reduction in crown rot incubated for 15 min followed by compound washout measured after 2 weeks in presence of surfactant APSA 80 relative to control; format: functional; design: scale not given: the % may be the effect or the level left
[23] = system: Fusarium verticillioides; assay: Antifungal activity against Fusarium verticillioides infected Cavendish banana fruit assessed as reduction in crown rot incubated for 15 min followed by compound washout measured after 2 weeks in absence of surfactant APSA 80 relative to control; format: functional; design: scale not given: the % may be the effect or the level left
[24] = system: Colletotrichum musae; assay: Antifungal activity against Colletotrichum musae infected Cavendish banana fruit assessed as reduction in crown rot incubated for 15 min followed by compound washout measured after 2 weeks in absence of surfactant APSA 80 relative to control; format: functional; design: scale not given: the % may be the effect or the level left
[25] = system: Thielaviopsis paradoxa; assay: Antifungal activity against Ceratocystis paradoxa infected Cavendish banana fruit assessed as reduction in crown rot incubated for 15 min followed by compound washout measured after 2 weeks in absence of surfactant APSA 80 relative to control; format: functional; design: scale not given: the % may be the effect or the level left
[26] = system: Lasiodiplodia theobromae; assay: Antifungal activity against Lasiodiplodia theobromae infected Cavendish banana fruit assessed as reduction in crown rot incubated for 15 min followed by compound washout measured after 2 weeks in absence of surfactant APSA 80 relative to control; format: functional; design: scale not given: the % may be the effect or the level left
[27] = system: Fusarium verticillioides; assay: Antifungal activity against Fusarium verticillioides infected Cavendish banana fruit assessed as reduction in crown rot incubated for 15 min followed by compound washout measured after 1 week in presence of surfactant APSA 80 relative to control; format: functional; design: scale not given: the % may be the effect or the level left
[28] = system: Colletotrichum musae; assay: Antifungal activity against Colletotrichum musae infected Cavendish banana fruit assessed as reduction in crown rot incubated for 15 min followed by compound washout measured after 1 week in presence of surfactant APSA 80 relative to control; format: functional; design: scale not given: the % may be the effect or the level left
[29] = system: Thielaviopsis paradoxa; assay: Antifungal activity against Ceratocystis paradoxa infected Cavendish banana fruit assessed as reduction in crown rot incubated for 15 min followed by compound washout measured after 1 week in presence of surfactant APSA 80 relative to control; format: functional; design: scale not given: the % may be the effect or the level left
[30] = system: Lasiodiplodia theobromae; assay: Antifungal activity against Lasiodiplodia theobromae infected Cavendish banana fruit assessed as reduction in crown rot incubated for 15 min followed by compound washout measured after 1 week in presence of surfactant APSA 80 relative to control; format: functional; design: scale not given: the % may be the effect or the level left
[31] = system: Fusarium verticillioides; assay: Antifungal activity against Fusarium verticillioides infected Cavendish banana fruit assessed as reduction in crown rot incubated for 15 min followed by compound washout measured after 1 week in absence of surfactant APSA 80 relative to control; format: functional; design: scale not given: the % may be the effect or the level left
[32] = system: Colletotrichum musae; assay: Antifungal activity against Colletotrichum musae infected Cavendish banana fruit assessed as reduction in crown rot incubated for 15 min followed by compound washout measured after 1 week in absence of surfactant APSA 80 relative to control; format: functional; design: scale not given: the % may be the effect or the level left
[33] = system: Thielaviopsis paradoxa; assay: Antifungal activity against Ceratocystis paradoxa infected Cavendish banana fruit assessed as reduction in crown rot incubated for 15 min followed by compound washout measured after 1 week in absence of surfactant APSA 80 relative to control; format: functional; design: scale not given: the % may be the effect or the level left
[34] = system: Lasiodiplodia theobromae; assay: Antifungal activity against Lasiodiplodia theobromae infected Cavendish banana fruit assessed as reduction in crown rot incubated for 15 min followed by compound washout measured after 1 week in absence of surfactant APSA 80 relative to control; format: functional; design: scale not given: the % may be the effect or the level left
[35] = system: Fusarium verticillioides; assay: Antifungal activity against Fusarium verticillioides assessed as reduction in colony diameter at 10 to 160 g/l incubated for 15 min followed by compound washout measured after 7 days in absence of surfactant APSA 80 relative to control; format: functional; design: scale not given: the % may be the effect or the level left
[36] = system: Colletotrichum musae; assay: Antifungal activity against Colletotrichum musae assessed as reduction in colony diameter at 10 to 160 g/l incubated for 15 min followed by compound washout measured after 7 days in absence of surfactant APSA 80 relative to control; format: functional; design: scale not given: the % may be the effect or the level left
[37] = system: Thielaviopsis paradoxa; assay: Antifungal activity against Ceratocystis paradoxa assessed as reduction in colony diameter at 10 to 160 g/l incubated for 15 min followed by compound washout measured after 7 days in absence of surfactant APSA 80 relative to control; format: functional; design: scale not given: the % may be the effect or the level left
[38] = system: Lasiodiplodia theobromae; assay: Antifungal activity against Lasiodiplodia theobromae assessed as reduction in colony diameter at 10 to 160 g/l incubated for 15 min followed by compound washout measured after 7 days in absence of surfactant APSA 80 relative to control; format: functional; design: scale not given: the % may be the effect or the level left
[39] = system: Fusarium verticillioides; assay: Antifungal activity against Fusarium verticillioides assessed as reduction in colony diameter at 10 to 160 g/l incubated for 15 min followed by compound washout measured after 7 days in presence of surfactant APSA 80 relative to control; format: functional; design: scale not given: the % may be the effect or the level left
[40] = system: Colletotrichum musae; assay: Antifungal activity against Colletotrichum musae assessed as reduction in colony diameter at 10 to 160 g/l incubated for 15 min followed by compound washout measured after 7 days in presence of surfactant APSA 80 relative to control; format: functional; design: scale not given: the % may be the effect or the level left
[41] = system: Thielaviopsis paradoxa; assay: Antifungal activity against Ceratocystis paradoxa assessed as reduction in colony diameter at 10 to 160 g/l incubated for 15 min followed by compound washout measured after 7 days in presence of surfactant APSA 80 relative to control; format: functional; design: scale not given: the % may be the effect or the level left
[42] = system: Lasiodiplodia theobromae; assay: Antifungal activity against Lasiodiplodia theobromae assessed as reduction in colony diameter at 10 to 160 g/l incubated for 15 min followed by compound washout measured after 7 days in presence of surfactant APSA 80 relative to control; format: functional; design: scale not given: the % may be the effect or the level left

O=C([O-])O.[Na+]
inhibition [1]: Active | inhibition [2]: Active | inhibition [3]: Active | Activity [4]: inactive | Activity [5]: inactive | Activity [6]: inactive | Activity [7]: inactive | Activity [8]: inactive | Activity [9]: inactive | inhibition [10]: Active | inhibition [11]: Active | inhibition [12]: Active | inhibition [13]: Active | inhibition [14]: Active

O=C([O-])O.[Na+] [SODIUM BICARBONATE]
Activity [15]: 150 g/L | Activity [16]: 100 g/L | Activity [17]: 12% | Activity [18]: 58% | Activity [19]: 0% | Activity [20]: 0% | Activity [21]: 0% | Activity [22]: 0% | Activity [23]: 25% | Activity [24]: 25% | Activity [25]: 25% | Activity [26]: 25% | Activity [27]: 0% | Activity [28]: 0% | Activity [29]: 0% | Activity [30]: 0% | Activity [31]: 0% | Activity [32]: 0% | Activity [33]: 0% | Activity [34]: 0% | Activity [35]: 0% | Activity [36]: 18% | Activity [37]: 36% | Activity [38]: 46% | Activity [39]: 50% | Activity [40]: 80% | Activity [41]: 76% | Activity [42]: 72%

Source: ChEMBL document CHEMBL3044541, “Control of crown rot-causing fungal pathogens of banana by inorganic salts and a surfactant” (Crop Prot, 2007)
